≈ marks a conversion by molar mass, not a printed value. Where two headings read alike, the source gives them in different places.
Experiments:
Assay type in all cases: cell-based
[1] = test system: Staphylococcus aureus (H-Heatley) NRRL B-314; assay: in vitro turbidometric assay (Autoturb Microbiological Assay System) against Staphylococcus aureus; conditions: nutrient broth pH 7, approximately 4 hours at 37° C., A-40104 factor A as standard
Procedure: The compounds are conveniently tested against a typical gram-positive organism, Staphylococcus aureus, using a turbidometric assay on a semi-automated system (Autoturb Microbiological Assay System, Elanco) described by N. R. Kuzel and F. W. Kavanagh in J. Pharmaceut. Sci, 60 (5), 764 and 767 (1971). In testing these compounds, the following parameters were used: Staphylococcus aureus (H-Heatley) NRRL B-314 in a nutrient broth medium (pH 7), incubated for approximately 4 hours at 37° C. Test samples and A-40104 factor A, which is used as a standard, were dissolved in water. The standard was presented to the Autoturb carrousel at concentrations of 1.25, 2.50, 3.75, 5.00 and 6.25 mcg/ml. Test compounds were diluted to contain approximately 2.5 to 5.0 mcg of activity per ml, as presented to the carrousel. The units of activity of some of the typical compounds of this invention (R^2 =H in group tested) in this in vitro assay are summarized in Table I

Actinomyces israelii = assay: standard agar-dilution test, anaerobic bacteria; conditions: 24-hour incubation
Clostridium perfringens = assay: microbe, parasite or virus in culture; conditions: 24 h
[2] = test system: Bacteroides thetaiotaomicron; assay: standard agar-dilution test, anaerobic bacteria; conditions: 24-hour incubation
Procedure: (§1) Table IV summarizes the activity of typical compounds of this invention, as determined by the standard agar-dilution test.
(§2) *Endpoint read after 24-hour incubation

Clostridium septicum = assay: standard agar-dilution test, anaerobic bacteria; conditions: 24-hour incubation
Procedure: as §1, §2

Eubacterium aerofaciens = assay: standard agar-dilution test, anaerobic bacteria; conditions: Collinsella aerofaciens
[3] = test system: Peptococcus asaccharolyticus; assay: standard agar-dilution test, anaerobic bacteria; conditions: Peptoniphilus asaccharolyticus, 24-hour incubation
Peptococcus prevoti = assay: standard agar-dilution test, anaerobic bacteria
[4] = test system: Peptostreptococcus anaerobius; assay: standard agar-dilution test, anaerobic bacteria; conditions: 24-hour incubation
[5] = test system: Peptostreptococcus intermedius; assay: standard agar-dilution test, anaerobic bacteria
Bacteroides fragilis 111 = assay: standard agar-dilution test, anaerobic bacteria
[6] = test system: Bacteroides fragilis 1877; assay: standard agar-dilution test, anaerobic bacteria
[7] = test system: Bacteroides fragilis 1936B; assay: standard agar-dilution test, anaerobic bacteria
[8] = test system: Bacteroides melaninogenicus 1856/28; assay: standard agar-dilution test, anaerobic bacteria; conditions: Prevotella intermedia
[9] = test system: Bacteroides melaninogenicus 2736; assay: standard agar-dilution test, anaerobic bacteria; conditions: Bacteroides melaninogenicus 2736; 24-hour incubation; read-out: MIC
Bacteroides vulgatis = assay: standard agar-dilution test, anaerobic bacteria
Bacteroides corrodens = assay: standard agar-dilution test, anaerobic bacteria; conditions: Eikenella corrodens
Fusobacterium symbiosum = assay: standard agar-dilution test, anaerobic bacteria
[10] = test system: Fusobacterium necrophorum; assay: standard agar-dilution test, anaerobic bacteria
Spiroplasma citri = assay: in vitro inhibition of Spiroplasma citri measured by a color reaction; parameters: key to Activity (color reaction): Red (R) includes complete inhibition; red-orange (RO) indicates partial inhibition; yellow (Y) indicates no inhibition
Procedure: In another important aspect, the compounds of this invention are active against Spiroplasmas. Spiroplasma citri is the causative agent of citrus-stubborn disease; another Spiroplasma, corn-stunt Spiroplasma, affects the growth of corn. Table VII summarizes the in vitro activity of representative compounds of the present invention (R^2 =H in this group) against Spiroplasma citri. In this test, inhibition of S. citri is measured by a color reaction. Red (R) includes complete inhibition; red-orange (RO) indicates partial inhibition; and yellow (Y) indicates no inhibition.

Mycoplasma gallisepticum = assay: in vitro broth-dilution studies, mycoplasma; conditions: Mycoplasmoides gallisepticum
Excerpt: (§3) The minimal inhibitory concentrations (MIC's) of a number of typical compounds of the present invention (R^2 =H in group tested) against various mycoplasma species, as determined by in vitro broth-dilution studies, are summarized in Table V.

Mycoplasma hyorhinis = assay: in vitro broth-dilution studies, mycoplasma
Excerpt: as §3

Mycoplasma synoviae = assay: in vitro broth-dilution studies, mycoplasma; conditions: Mycoplasmopsis synoviae
Excerpt: as §3

[11] = Peptococcus prevoti, 24-hour incubation, read-out: MIC
[12] = Peptostreptococcus intermedius, 24-hour incubation, read-out: MIC
[13] = Bacteroides fragilis 111, 24-hour incubation, read-out: MIC
[14] = Bacteroides fragilis 1877, 24-hour incubation, read-out: MIC
[15] = Bacteroides fragilis 1936B, 24-hour incubation, read-out: MIC
[16] = Bacteroides melaninogenicus 1856/28, 24-hour incubation, read-out: MIC
[17] = Bacteroides vulgatis, 24-hour incubation, read-out: MIC
[18] = Bacteroides corrodens, 24-hour incubation, read-out: MIC
[19] = 24-hour incubation, read-out: MIC
[20] = Eubacterium aerofaciens, 24-hour incubation, read-out: MIC
[21] = Fusobacterium symbiosum, 24-hour incubation, read-out: MIC

Structure (SMILES): CC[C@]1(C)C[C@@H](OC(=O)CS[C@@H]2O[C@H](COC(C)=O)[C@@H](OC(C)=O)[C@H](OC(C)=O)[C@H]2OC(C)=O)[C@]2(C)[C@H](C)CC[C@]3(CCC(=O)[C@H]32)[C@@H](C)[C@@H]1O [Compound 4, 14-deoxy-14-[(2,3,4,6-tetra-O-acetyl-β-D-glucopyranosyl)thioacetoxy]-19,20-dihydromutilin]
- Units of Activity [1]: 203 to 220 µg/mg
- MIC (Actinomyces israelii): ≤ 0.5 µg/mL
- MIC (Clostridium perfringens): > 128 µg/mL
- MIC [2]: 64 µg/mL (≈ 88 µM)
- MIC (Clostridium septicum): 4 µg/mL (≈ 5.5 µM)
- MIC (Eubacterium aerofaciens; 24 h): > 128 µg/mL
- MIC [3]: ≤ 0.5 µg/mL
- MIC (Peptococcus prevoti; [11]): 8 µg/mL (≈ 11 µM)
- MIC [4]: 1 µg/mL (≈ 1.38 µM)
- MIC [5, 12]: 2 µg/mL (≈ 2.75 µM)
- MIC (Bacteroides fragilis 111; [13]): 32 µg/mL (≈ 44 µM)
- MIC [6, 14]: 32 µg/mL (≈ 44 µM)
- MIC [7, 15]: 64 µg/mL (≈ 88 µM)
- MIC [8, 16]: 8 µg/mL (≈ 11 µM)
- MIC [9]: 4 µg/mL (≈ 5.5 µM)
- MIC (Bacteroides vulgatis; [17]): 32 µg/mL (≈ 44 µM)
- MIC (Bacteroides corrodens; [18]): 32 µg/mL (≈ 44 µM)
- MIC (Fusobacterium symbiosum; Fusobacterium, 24 h): 128 µg/mL (≈ 176 µM)
- MIC [10, 19]: ≤ 0.5 µg/mL
- Activity (color reaction) (Spiroplasma citri; 0.01 ppm): Y
- Activity (color reaction) (Spiroplasma citri; 0.05 ppm): R
- Activity (color reaction) (Spiroplasma citri; 0.1 ppm): R
- Activity (color reaction) (Spiroplasma citri; 1.0 ppm): R

Structure (SMILES): CC[C@]1(C)C[C@@H](OC(=O)CS[C@@H]2O[C@H](CO)[C@@H](O)[C@H](O)[C@H]2O)[C@]2(C)[C@H](C)CC[C@]3(CCC(=O)[C@H]32)[C@@H](C)[C@@H]1O [Compound 5, 14-deoxy-14-[(β-D-glucopyranosyl)thioacetoxy]-19,20-dihydromutilin]
- Units of Activity [1]: 29 to 31 µg/mg
- MIC (Actinomyces israelii): ≤ 0.5 µg/mL
- MIC (Clostridium perfringens): 8 µg/mL (≈ 14.3 µM)
- MIC [2]: 64 µg/mL (≈ 115 µM)
- MIC (Clostridium septicum): 32 µg/mL (≈ 57.3 µM)
- MIC (Eubacterium aerofaciens; [20]): 4 µg/mL (≈ 7.16 µM)
- MIC [3]: 4 µg/mL (≈ 7.16 µM)
- MIC (Peptococcus prevoti; [11]): 2 µg/mL (≈ 3.58 µM)
- MIC [4]: 8 µg/mL (≈ 14.3 µM)
- MIC [5, 12]: 2 µg/mL (≈ 3.58 µM)
- MIC (Bacteroides fragilis 111; [13]): 64 µg/mL (≈ 115 µM)
- MIC [6, 14]: 64 µg/mL (≈ 115 µM)
- MIC [7, 15]: 128 µg/mL (≈ 229 µM)
- MIC [8, 16]: 2 µg/mL (≈ 3.58 µM)
- MIC [9]: 4 µg/mL (≈ 7.16 µM)
- MIC (Bacteroides vulgatis; [17]): 32 µg/mL (≈ 57.3 µM)
- MIC (Bacteroides corrodens; [18]): 64 µg/mL (≈ 115 µM)
- MIC (Fusobacterium symbiosum; [21]): 16 µg/mL (≈ 28.6 µM)
- MIC [10, 19]: 8 µg/mL (≈ 14.3 µM)
- Activity (color reaction) (Spiroplasma citri; 0.01 ppm): Y
- Activity (color reaction) (Spiroplasma citri; 0.05 ppm): R
- Activity (color reaction) (Spiroplasma citri; 0.1 ppm): R
- Activity (color reaction) (Spiroplasma citri; 1.0 ppm): R

Structure (SMILES): C=C[C@]1(C)C[C@@H](OC(=O)CO[C@H]2O[C@H](COC(C)=O)[C@@H](OC(C)=O)[C@H](OC(C)=O)C2=NO)[C@]2(C)[C@H](C)CC[C@]3(CCC(=O)[C@H]32)[C@@H](C)[C@@H]1O [Compound 7, 14-deoxy-14-[(2-deoxy-2-(hydroxyimino)-3,4,6-tri-O-acetyl-α-D-glucopyranosyl)oxyacetoxy]mutilin]
- Units of Activity [1]: 11 to 12 µg/mg
- MIC (Actinomyces israelii): 64 µg/mL (≈ 94.2 µM)
- MIC (Clostridium perfringens): > 128 µg/mL
- MIC [2]: > 128 µg/mL
- MIC (Clostridium septicum): > 128 µg/mL
- MIC (Eubacterium aerofaciens; 24 h): > 128 µg/mL
- MIC [3]: 64 µg/mL (≈ 94.2 µM)
- MIC (Peptococcus prevoti; 24 h): 128 µg/mL (≈ 188 µM)
- MIC [4]: 64 µg/mL (≈ 94.2 µM)
- MIC ([5]; Peptostreptococcus, 24 h): > 128 µg/mL
- MIC (Bacteroides fragilis 111; Bacteroides fragilis, 111, 24 h): > 128 µg/mL
- MIC ([6]; Bacteroides fragilis, 1877, 24 h): > 128 µg/mL
- MIC ([7]; Bacteroides fragilis, 1936B, 24 h): > 128 µg/mL
- MIC ([8]; 1856/28, 24 h): > 128 µg/mL
- MIC [9]: 32 µg/mL (≈ 47.1 µM)
- MIC (Bacteroides vulgatis; Bacteroides, 24 h): > 128 µg/mL
- MIC (Bacteroides corrodens; 24 h): > 128 µg/mL
- MIC (Fusobacterium symbiosum; Fusobacterium, 24 h): > 128 µg/mL
- MIC ([10]; 24 h): > 128 µg/mL
- MIC (Mycoplasma gallisepticum): 0.78 µg/mL (≈ 1.15 µM)
- MIC (Mycoplasma hyorhinis): 0.78 µg/mL (≈ 1.15 µM)
- MIC (Mycoplasma synoviae): > 6.25 µg/mL

Structure (SMILES): C=C[C@]1(C)C[C@@H](OC(=O)CS[C@@H]2O[C@H](CO)[C@@H](O)[C@H](O)[C@H]2O)[C@]2(C)[C@H](C)CC[C@]3(CCC(=O)[C@H]32)[C@@H](C)[C@@H]1O [Compound 10, 14-deoxy-14-[(β-D-glucopyranosyl)thioacetoxy]mutilin]
- Units of Activity [1]: 36 µg/mg
- MIC (Actinomyces israelii): 2 µg/mL (≈ 3.59 µM)
- MIC (Clostridium perfringens): 64 µg/mL (≈ 115 µM)
- MIC [2]: 64 µg/mL (≈ 115 µM)
- MIC (Clostridium septicum): 64 µg/mL (≈ 115 µM)
- MIC (Eubacterium aerofaciens; [20]): 16 µg/mL (≈ 28.7 µM)
- MIC [3]: 16 µg/mL (≈ 28.7 µM)
- MIC (Peptococcus prevoti; [11]): 16 µg/mL (≈ 28.7 µM)
- MIC [4]: ≤ 0.5 µg/mL
- MIC [5, 12]: 4 µg/mL (≈ 7.18 µM)
- MIC (Bacteroides fragilis 111; [13]): 128 µg/mL (≈ 230 µM)
- MIC [6, 14]: 64 µg/mL (≈ 115 µM)
- MIC [7, 15]: 64 µg/mL (≈ 115 µM)
- MIC [8, 16]: > 128 µg/mL
- MIC [9]: 32 µg/mL (≈ 57.5 µM)
- MIC (Bacteroides vulgatis; [17]): 64 µg/mL (≈ 115 µM)
- MIC (Bacteroides corrodens; [18]): 64 µg/mL (≈ 115 µM)
- MIC (Fusobacterium symbiosum; [21]): 64 µg/mL (≈ 115 µM)
- MIC [10, 19]: 2 µg/mL (≈ 3.59 µM)
- MIC (Mycoplasma gallisepticum): 1.56 µg/mL (≈ 2.8 µM)
- MIC (Mycoplasma hyorhinis): 1.56 µg/mL (≈ 2.8 µM)
- MIC (Mycoplasma synoviae): 3.12 µg/mL (≈ 5.6 µM)

Structure (SMILES): C=C[C@]1(C)C[C@@H](OC(=O)CO[C@H]2O[C@H](COCc3ccccc3)[C@@H](OCc3ccccc3)[C@H](OCc3ccccc3)[C@H]2OCc2ccccc2)[C@]2(C)[C@H](C)CC[C@]3(CCC(=O)[C@H]32)[C@@H](C)[C@@H]1O [Example 1, 14-deoxy-14-[(2,3,4,6-tetra-O-benzyl-α-D-glucopyranosyl)oxyacetoxy]mutilin]
- MIC (Mycoplasma gallisepticum): 25 µg/mL (≈ 27.7 µM)
- MIC (Mycoplasma hyorhinis): 50 µg/mL (≈ 55.5 µM)
- MIC (Mycoplasma synoviae): 50 µg/mL (≈ 55.5 µM)
